Experimental data reported in patent US7863235B2, “Method of activating α-amylase with oxidizing agents” (Kao Corporation, priority 2004, dated 2011).

Tested on: Duramyl 60T (α-amylase)
Experiment: Activation of Duramyl 60T by types of oxidizing agents (phadebas method)
Type: biochemical
Details: activity of Duramyl 60T (a1) after contact with oxidizing agent powder (b2), ratio 10/1; 25° C., 8 g/m^3, 30 minutes
Method: One tablet from Neo, Amylase Test “Daiichi” (product number: 701501-005, available from Daiichi Pure Chemicals Co., Ltd.) was added to 5 mL buffer (Britton-Robinson's Buffer, pH 8.5, 50 mM (Koichi Anan et al., Fundamental Biochemical Experimental Method 6 [in Japanese], p. 277, Maruzen Co., Ltd.)) and stirred for about 10 seconds, then 1 mL enzyme solution diluted with 2 mM aqueous calcium chloride was added, and the mixture was reacted at 50° C. for 15 minutes. 1 mL of 0.5 N aqueous sodium hydroxide was added to the solution under stirring to terminate the reaction, and then the reaction solution was centrifuged (400×g, 5 minutes) to precipitate insoluble components, and the supernatant thus obtained by centrifugation was measured for absorbance at 620 nm.
One tablet from Neo, Amylase Test “Daiichi” was added to 5 mL buffer (Britton-Robinson's Buffer, pH 8.5, 50 mM (Koichi Anan et al., Fundamental Biochemical Experimental Method 6 [in Japanese], p. 277, Maruzen Co., Ltd.)) and stirred for about 10 seconds. […] The supernatant thus obtained by centrifugation was measured for absorbance at 620 nm.
The activity of amylase was calculated from the difference in absorbance between (1) and (2) in a calibration curve as a standard of an International Unit sample enclosed with Neo, Amylase Test “Daiichi”. […]

| Structure (SMILES) | Relative activity (%) |
| --- | --- |
| O.[Na+].[O-][Cl+3]([O-])([O-])[O-] [Sodium perchlorate•1H2O, sodium perchlorate.1H2O] | 120% |
| O.O.O.O.O=BO[O-].[Na+] [Sodium perborate•4H2O, sodium perborate.4H2O] | 140% |
